{"source": "paper PMC11549461", "about": "“Stability of immobilized L-arginine deiminase from Penicillium chrysogenum and evaluation of its anticancer activity” (Scientific Reports, 2024)", "system": "L-arginine deiminase (ADI)", "experiment": "Lineweaver-Burk plot; ammonia release with Nessler's reagent", "type": "biochemical, Penicillium chrysogenum", "conditions": "free enzyme; pH and temperature of the kinetic assay not given", "data": [{"smiles": "N=C(N)NCCC[C@H](N)C(=O)O", "note": "[L-arginine]", "values": [{"measurement": "Km", "value": 760, "unit": "µM"}]}]}
